This test deals with T1, DPP-4 (Homo sapiens, UniProt P27487).
T1 construct: gene DPP4
Kind of test: fluorogenic enzyme inhibition assay (Cayman DPP-4 inhibitor screening kit). The class given is biochemical.

T1 sequence (P27487 39-766): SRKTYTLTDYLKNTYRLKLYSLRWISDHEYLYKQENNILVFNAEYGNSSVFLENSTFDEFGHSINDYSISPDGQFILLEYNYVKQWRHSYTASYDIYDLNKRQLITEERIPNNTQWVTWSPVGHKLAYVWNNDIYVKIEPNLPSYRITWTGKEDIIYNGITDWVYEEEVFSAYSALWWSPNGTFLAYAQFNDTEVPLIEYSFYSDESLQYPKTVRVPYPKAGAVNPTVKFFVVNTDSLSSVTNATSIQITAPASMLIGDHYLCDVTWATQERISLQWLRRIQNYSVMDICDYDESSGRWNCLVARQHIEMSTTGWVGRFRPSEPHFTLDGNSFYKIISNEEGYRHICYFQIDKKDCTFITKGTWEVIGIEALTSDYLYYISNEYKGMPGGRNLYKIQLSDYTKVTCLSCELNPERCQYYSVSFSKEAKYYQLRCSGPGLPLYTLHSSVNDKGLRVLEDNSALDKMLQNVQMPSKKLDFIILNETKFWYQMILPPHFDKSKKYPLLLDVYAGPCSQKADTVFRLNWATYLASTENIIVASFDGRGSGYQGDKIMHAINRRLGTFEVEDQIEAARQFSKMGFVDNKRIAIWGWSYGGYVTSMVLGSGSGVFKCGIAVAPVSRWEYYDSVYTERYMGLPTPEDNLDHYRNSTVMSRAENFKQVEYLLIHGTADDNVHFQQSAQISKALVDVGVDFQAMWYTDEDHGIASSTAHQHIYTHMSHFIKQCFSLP

What is called IC50 is the concentration needed to halve the response being measured. Low readings indicate higher potency, high ones lower potency. On to `O=C(O)/C=C/c1ccc(O)c(O)c1` [caffeic acid, (E)-3-(3,4-dihydroxyphenyl)prop-2-enoic acid], for which the IC50 is 158 ± 11.3 µM.

Values taken from paper PMC10609219 (Molecules, 2023).
